In ChEMBL document CHEMBL5104188, “Discovery and Characterization of Synthesized and FDA-Approved Inhibitors of Clostridial and Bacillary Collagenases” (J Med Chem, 2022):
Converted amounts (≈) assume the structure as drawn. The source made the active and inactive calls. The calls are words filed in the database; no cut-off is given here.

Columns and labels:
[1] = target: Collagenase ColQ1 (Bacillus cereus) (UniProt B9J3S4); assay: Inhibition of full length Bacillus cereus ColQ1 assessed as reduction in Col 1 cleavage at 1.5 to 12.5 uM incubated for 3 hrs by SDS-PAGE analysis; details: dose 1.5-12.5 µM
Chain of Collagenase ColQ1 (Bacillus cereus) (B9J3S4 whole entry): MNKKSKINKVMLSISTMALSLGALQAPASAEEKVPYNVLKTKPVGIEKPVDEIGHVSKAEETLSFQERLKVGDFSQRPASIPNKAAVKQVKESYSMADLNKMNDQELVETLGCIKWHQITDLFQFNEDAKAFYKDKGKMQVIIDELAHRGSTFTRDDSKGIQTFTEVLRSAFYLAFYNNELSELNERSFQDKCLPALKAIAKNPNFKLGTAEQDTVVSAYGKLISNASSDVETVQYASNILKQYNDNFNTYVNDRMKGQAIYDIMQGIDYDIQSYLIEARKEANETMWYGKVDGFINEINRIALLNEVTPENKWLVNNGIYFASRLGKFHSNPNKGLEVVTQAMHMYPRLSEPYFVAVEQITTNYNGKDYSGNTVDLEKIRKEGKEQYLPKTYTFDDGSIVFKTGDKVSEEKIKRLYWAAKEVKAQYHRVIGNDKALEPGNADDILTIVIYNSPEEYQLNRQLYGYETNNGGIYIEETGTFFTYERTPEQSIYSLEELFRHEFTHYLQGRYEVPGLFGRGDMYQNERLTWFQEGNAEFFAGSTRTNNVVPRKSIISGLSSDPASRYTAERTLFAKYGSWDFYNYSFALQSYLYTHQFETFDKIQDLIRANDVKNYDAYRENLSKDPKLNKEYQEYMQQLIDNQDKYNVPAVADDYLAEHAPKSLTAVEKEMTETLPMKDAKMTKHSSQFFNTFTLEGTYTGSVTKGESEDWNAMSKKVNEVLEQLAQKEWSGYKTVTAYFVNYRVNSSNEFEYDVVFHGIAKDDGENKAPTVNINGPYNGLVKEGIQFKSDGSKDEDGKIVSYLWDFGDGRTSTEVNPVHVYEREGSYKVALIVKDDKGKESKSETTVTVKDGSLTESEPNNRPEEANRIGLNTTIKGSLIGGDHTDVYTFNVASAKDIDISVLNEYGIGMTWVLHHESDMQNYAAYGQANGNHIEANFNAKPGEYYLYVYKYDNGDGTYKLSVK

Collagenase ColH [2] = target: T1, Collagenase ColH (Hathewaya histolytica, UniProt Q46085); assay: Inhibition of Clostridium histolyticum CoLH using M MOCAcPro-Leu-Gly-Leu-A2pr-(DNP)Ala-Arg-NH2 as substrate incubated for 10 mins by fluorescence spectrophotometer analysis
T1 sequence (Q46085 whole entry): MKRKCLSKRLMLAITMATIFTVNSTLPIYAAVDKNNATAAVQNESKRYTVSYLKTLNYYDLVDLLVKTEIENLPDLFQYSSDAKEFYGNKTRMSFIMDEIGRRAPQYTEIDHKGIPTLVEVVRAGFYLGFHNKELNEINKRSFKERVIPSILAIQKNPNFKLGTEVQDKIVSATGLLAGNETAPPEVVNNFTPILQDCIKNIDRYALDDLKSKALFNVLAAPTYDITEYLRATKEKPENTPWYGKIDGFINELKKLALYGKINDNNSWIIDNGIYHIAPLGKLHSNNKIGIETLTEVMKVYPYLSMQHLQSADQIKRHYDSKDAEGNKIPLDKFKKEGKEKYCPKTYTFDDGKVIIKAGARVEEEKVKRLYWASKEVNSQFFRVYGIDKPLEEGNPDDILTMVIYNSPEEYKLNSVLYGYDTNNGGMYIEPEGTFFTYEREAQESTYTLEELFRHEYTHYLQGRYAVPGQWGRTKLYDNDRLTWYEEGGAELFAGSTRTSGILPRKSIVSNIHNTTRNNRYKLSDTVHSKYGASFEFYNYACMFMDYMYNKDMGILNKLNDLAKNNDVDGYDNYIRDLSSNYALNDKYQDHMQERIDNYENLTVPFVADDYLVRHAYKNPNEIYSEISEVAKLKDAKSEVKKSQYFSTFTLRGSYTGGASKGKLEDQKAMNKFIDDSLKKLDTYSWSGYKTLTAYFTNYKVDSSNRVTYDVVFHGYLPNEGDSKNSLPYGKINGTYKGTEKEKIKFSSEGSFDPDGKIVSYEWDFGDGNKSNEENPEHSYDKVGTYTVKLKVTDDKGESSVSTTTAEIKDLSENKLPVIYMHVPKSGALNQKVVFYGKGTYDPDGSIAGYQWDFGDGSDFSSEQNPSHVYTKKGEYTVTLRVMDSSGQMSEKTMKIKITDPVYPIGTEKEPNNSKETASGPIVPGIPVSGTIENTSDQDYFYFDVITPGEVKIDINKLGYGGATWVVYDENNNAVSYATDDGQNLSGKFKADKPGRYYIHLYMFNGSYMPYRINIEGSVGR

NHDF [3] = assay: Inhibition of Bacillus cereus collagenase infected in NHDF cells assessed as reduction in LDH release at > 100 uM incubated for 30 mins by LDH assay; assay type: cell-based
NHDF [4] = assay: Inhibition of Bacillus cereus collagenase infected in NHDF cells assessed as fibrillar extra cellular matrix at > 100 uM incubated for 1 to 6 hrs by coomassie brilliant blue staining based SDS-PAGE analysis; assay type: cell-based; details: time 1-6 hrs
NHDF [5] = assay: Inhibition of Bacillus cereus collagenase infected in NHDF cells assessed as protection of spindle shape morphology at > 100 uM incubated for 1 to 6 hrs by coomassie brilliant blue staining based SDS-PAGE analysis; assay type: cell-based; details: time 1-6 hrs
[6] = target: Collagenase ColQ1 (Bacillus cereus) (UniProt B9J3S4); details: dose 100.0 µM, time 144.0 sec
Collagenase ColH [7] = target: T1, Collagenase ColH; assay: Inhibition of Clostridium histolyticum CoLH
HepG2 = assay: Cytotoxicity against human HepG2 cells assessed as reduction in cell viability; assay type: functional, cell-based
[8] = target: T2, Collagenase ColG (Clostridium histolyticum) (UniProt Q9X721); assay: Reversible inhibition of Clostridium histolyticum collagenase unit of ColG at 7.5 uM using quenched fluorescent FSI-1 as substrate incubated for 2 min by rapid dilution assay; details: Hathewaya histolytica
T2 sequence (whole entry): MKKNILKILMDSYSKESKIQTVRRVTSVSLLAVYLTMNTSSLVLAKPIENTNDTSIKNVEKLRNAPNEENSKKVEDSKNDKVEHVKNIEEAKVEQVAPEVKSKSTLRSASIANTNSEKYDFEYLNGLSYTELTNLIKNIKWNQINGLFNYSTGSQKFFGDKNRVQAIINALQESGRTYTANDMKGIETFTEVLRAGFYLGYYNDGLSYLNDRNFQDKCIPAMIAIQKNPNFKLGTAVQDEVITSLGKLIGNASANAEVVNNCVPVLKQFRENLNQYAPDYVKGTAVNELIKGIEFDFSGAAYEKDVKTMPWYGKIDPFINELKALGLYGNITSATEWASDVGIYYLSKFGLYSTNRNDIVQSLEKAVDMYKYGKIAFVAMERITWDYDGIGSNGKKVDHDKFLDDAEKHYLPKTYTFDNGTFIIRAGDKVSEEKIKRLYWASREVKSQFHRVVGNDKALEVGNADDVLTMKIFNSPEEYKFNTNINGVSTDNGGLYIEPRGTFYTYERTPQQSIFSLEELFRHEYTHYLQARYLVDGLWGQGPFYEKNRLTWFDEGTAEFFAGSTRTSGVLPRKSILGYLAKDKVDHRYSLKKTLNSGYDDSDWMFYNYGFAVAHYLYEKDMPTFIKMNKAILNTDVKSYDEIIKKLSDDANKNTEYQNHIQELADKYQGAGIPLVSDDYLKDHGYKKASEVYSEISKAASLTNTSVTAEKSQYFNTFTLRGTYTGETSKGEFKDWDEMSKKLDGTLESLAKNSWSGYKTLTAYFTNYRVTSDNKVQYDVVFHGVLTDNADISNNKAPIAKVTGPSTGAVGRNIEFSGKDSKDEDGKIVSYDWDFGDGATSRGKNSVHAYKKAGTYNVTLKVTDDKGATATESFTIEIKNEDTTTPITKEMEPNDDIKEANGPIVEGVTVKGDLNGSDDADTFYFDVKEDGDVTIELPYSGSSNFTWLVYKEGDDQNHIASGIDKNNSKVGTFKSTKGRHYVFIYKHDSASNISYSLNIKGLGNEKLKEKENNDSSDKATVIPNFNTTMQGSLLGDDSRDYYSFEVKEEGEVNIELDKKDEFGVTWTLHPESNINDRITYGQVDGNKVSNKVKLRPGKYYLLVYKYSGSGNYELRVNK

Bacillus cereus [9] = assay: In vivo inhibition of Bacillus cereus AH187 ColQ1 infected in Galleria mellonella larvae assessed as increase in survival rate at 100 uM incubated for 3 days; assay type: functional; details: AH187, 72 h, time 3 day
[10] = target: Collagenase ColA (Bacillus cereus) (UniProt Q81BJ6); assay: Irreversible inhibition of Bacillus cereus collagenase unit ColA at 0.125 uM using quenched fluorescent FSI-1 as substrate incubated for 2 min by rapid dilution assay
Chain of Collagenase ColA (Bacillus cereus) (Q81BJ6 whole entry): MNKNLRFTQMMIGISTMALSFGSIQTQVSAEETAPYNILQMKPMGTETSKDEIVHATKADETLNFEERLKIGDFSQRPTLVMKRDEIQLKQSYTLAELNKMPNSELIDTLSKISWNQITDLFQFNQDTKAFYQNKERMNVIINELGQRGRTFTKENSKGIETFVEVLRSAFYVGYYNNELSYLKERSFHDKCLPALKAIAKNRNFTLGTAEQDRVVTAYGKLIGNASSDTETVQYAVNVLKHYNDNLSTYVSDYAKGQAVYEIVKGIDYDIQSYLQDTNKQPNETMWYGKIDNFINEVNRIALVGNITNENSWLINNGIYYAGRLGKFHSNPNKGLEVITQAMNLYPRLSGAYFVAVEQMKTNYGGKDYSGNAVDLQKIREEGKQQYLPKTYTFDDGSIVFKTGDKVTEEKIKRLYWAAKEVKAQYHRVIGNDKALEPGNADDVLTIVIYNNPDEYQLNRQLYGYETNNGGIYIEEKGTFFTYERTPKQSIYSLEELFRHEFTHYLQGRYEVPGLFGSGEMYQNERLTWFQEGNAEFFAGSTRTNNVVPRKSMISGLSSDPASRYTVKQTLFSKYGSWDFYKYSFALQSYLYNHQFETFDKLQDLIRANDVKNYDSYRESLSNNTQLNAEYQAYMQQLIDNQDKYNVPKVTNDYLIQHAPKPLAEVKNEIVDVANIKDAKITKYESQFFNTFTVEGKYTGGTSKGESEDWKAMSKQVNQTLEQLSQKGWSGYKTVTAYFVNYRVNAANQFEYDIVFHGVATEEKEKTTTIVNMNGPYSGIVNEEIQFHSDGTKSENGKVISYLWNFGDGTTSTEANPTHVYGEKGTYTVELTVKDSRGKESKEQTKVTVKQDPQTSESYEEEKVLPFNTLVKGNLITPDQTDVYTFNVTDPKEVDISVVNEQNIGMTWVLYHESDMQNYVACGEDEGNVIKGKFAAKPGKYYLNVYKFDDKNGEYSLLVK

NHDF [11] = assay: Inhibition of Bacillus cereus collagenase infected in NHDF cells assessed as suppression of gelatin lysis incubated for 1 to 6 hrs by coomassie brilliant blue staining based zymography analysis; assay type: cell-based; details: dose 12.5-100 µM, time 1-6 hrs
[12] = target: T3, Collagenase ColH (Hathewaya histolytica) (UniProt Q46085); assay: Reversible inhibition of Clostridium histolyticum peptidase domain of ColH at 1.25 uM using quenched fluorescent FSI-1 as substrate incubated for 2 min by rapid dilution assay
T3 sequence (whole entry): T1 sequence (Q46085 whole entry)

Collagenase ColH [13] = target: T1, Collagenase ColH; assay: Inhibition of Clostridium histolyticum CoLH assessed as inhibition constant using M MOCAcPro-Leu-Gly-Leu-A2pr-(DNP)Ala-Arg-NH2 as substrate incubated for 10 mins by fluorescence spectrophotometer analysis
[14] = target: 72 kDa type IV collagenase (Homo sapiens, UniProt P08253); assay: Inhibition of human MMP-2 assessed as inhibition constant using AcProLeuGly-S-LeuLeuGlyOEt as substrate by spectrophotometer analysis
Chain of 72 kDa type IV collagenase (P08253 whole entry): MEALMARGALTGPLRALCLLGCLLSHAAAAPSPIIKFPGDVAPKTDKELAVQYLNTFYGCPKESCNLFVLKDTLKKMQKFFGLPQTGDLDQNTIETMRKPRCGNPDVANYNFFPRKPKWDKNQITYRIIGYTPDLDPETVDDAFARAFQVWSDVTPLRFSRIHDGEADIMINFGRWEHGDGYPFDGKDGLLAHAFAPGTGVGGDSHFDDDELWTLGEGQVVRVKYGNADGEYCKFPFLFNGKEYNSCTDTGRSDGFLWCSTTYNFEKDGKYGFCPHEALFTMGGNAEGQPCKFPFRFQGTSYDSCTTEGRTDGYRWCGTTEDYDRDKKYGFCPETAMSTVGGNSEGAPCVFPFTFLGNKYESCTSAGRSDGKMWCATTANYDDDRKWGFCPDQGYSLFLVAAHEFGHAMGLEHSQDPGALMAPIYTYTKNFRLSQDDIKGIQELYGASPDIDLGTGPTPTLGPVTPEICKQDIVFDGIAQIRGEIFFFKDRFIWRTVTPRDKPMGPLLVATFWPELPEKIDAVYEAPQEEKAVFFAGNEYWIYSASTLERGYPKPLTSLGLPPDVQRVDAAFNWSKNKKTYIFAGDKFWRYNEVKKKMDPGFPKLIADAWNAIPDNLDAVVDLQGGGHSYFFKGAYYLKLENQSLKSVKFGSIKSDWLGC

Neutrophil collagenase = Neutrophil collagenase (Homo sapiens, UniProt P22894); assay: Inhibition of human MMP-8 assessed as inhibition constant using AcProLeuGly-S-LeuLeuGlyOEt as substrate by spectrophotometer analysis
Chain of Neutrophil collagenase (P22894 whole entry): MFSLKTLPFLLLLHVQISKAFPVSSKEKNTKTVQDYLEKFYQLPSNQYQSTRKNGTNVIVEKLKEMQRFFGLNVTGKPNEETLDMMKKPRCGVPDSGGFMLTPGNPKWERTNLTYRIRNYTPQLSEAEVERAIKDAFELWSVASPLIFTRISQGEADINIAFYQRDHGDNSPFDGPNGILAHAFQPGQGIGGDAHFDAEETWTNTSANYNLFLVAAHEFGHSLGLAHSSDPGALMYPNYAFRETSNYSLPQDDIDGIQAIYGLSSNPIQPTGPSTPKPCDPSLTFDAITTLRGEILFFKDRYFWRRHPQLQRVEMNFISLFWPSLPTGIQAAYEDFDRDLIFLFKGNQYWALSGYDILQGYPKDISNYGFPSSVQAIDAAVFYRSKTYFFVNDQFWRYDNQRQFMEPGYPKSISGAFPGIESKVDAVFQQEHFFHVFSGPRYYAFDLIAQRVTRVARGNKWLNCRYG

NHDF [15] = assay: Inhibition of Bacillus cereus collagenase infected in NHDF cells assessed as protection of spindle shape morphology at > 50 uM incubated for 1 to 6 hrs by coomassie brilliant blue staining based SDS-PAGE analysis; assay type: cell-based; details: time 1-6 hrs
NHDF [16] = assay: Inhibition of Bacillus cereus collagenase infected in NHDF cells assessed as suppression of gelatin lysis at 100 uM incubated for 1 to 6 hrs by coomassie brilliant blue staining based zymography analysis; assay type: cell-based; details: time 1-6 hrs
NHDF [17] = assay: Inhibition of Bacillus cereus collagenase infected in NHDF cells assessed as prevention of cell detachment at 25 uM incubated for 1 to 6 hrs by coomassie brilliant blue staining based SDS-PAGE analysis; details: time 1-6 hrs
NHDF [18] = assay: Inhibition of Bacillus cereus collagenase infected in NHDF cells assessed as reduction in LDH release at > 50 uM incubated for 30 mins by LDH assay; assay type: cell-based
[19] = target: Collagenase ColA (Bacillus cereus) (UniProt Q81BJ6); assay: Reversible inhibition of Bacillus cereus collagenase unit ColA at 4.375 uM using quenched fluorescent FSI-1 as substrate incubated for 2 min by rapid dilution assay
Bacillus cereus [20] = assay: Antibacterial activity against Bacillus cereus AH187 assessed as minimal inhibitory concentration incubated for 48 hrs microplate reader analysis; assay type: functional
Bacillus cereus [21] = assay: In vivo inhibition of Bacillus cereus AH187 ColQ1 infected in Galleria mellonella larvae assessed as increase in survival rate at 200 uM incubated for 3 days; assay type: functional; details: AH187, 72 h, time 3 day
NHDF [22] = assay: Inhibition of Bacillus cereus collagenase infected in NHDF cells assessed as suppression of gelatin lysis at 200 uM incubated for 1 to 6 hrs by coomassie brilliant blue staining based zymography analysis; assay type: cell-based; details: time 1-6 hrs
NHDF [23] = assay: Inhibition of Bacillus cereus collagenase infected in NHDF cells assessed as reduction in cell viability at 100 uM; assay type: cell-based
NHDF [24] = assay: Inhibition of Bacillus cereus collagenase infected in NHDF cells assessed as prevention of cell detachment at 100 uM incubated for 1 to 6 hrs by coomassie brilliant blue staining based SDS-PAGE analysis; details: time 1-6 hrs
[25] = Stability of compound in DMEM medium at 200 uM incubated for 2 hrs by LC-MS analysis; assay type: physicochemical
NHDF [26] = assay: Inhibition of Bacillus cereus collagenase infected in NHDF cells assessed as prevention of cell detachment at 25 to 100 uM incubated for 1 to 6 hrs by coomassie brilliant blue staining based SDS-PAGE analysis; details: dose 25-100 µM, time 1-6 hrs
NHDF [27] = assay: Inhibition of Bacillus cereus collagenase infected in NHDF cells assessed as reduction in cell viability at 25 to 100 uM; assay type: cell-based; details: dose 25-100 µM

O=P(O)(O)c1nc2ccccc2nc1P(=O)(O)O
inhibition [1]: Active

COc1cc2ccc(=O)oc2cc1OC [SCOPARONE]
IC50 (Collagenase ColH [2]): 24 nM

O=P(O)(O)C(Sc1ccc(Cl)cc1)P(=O)(O)O
inhibition (NHDF [3]): Active
inhibition (NHDF [4]): Active
inhibition (NHDF [5]): Active

O=P(O)(O)c1nc2ccc(F)cc2nc1P(=O)(O)O
inhibition [6]: < 5%

CC(=O)c1ccc(NC(=O)CSC(N)=O)cc1
IC50 (Collagenase ColH [7]): 10 nM

O=P(O)(O)c1nc2ccc(-c3ccc(Cl)cc3)cc2nc1P(=O)(O)O
IC50 (HepG2): > 100 µM
inhibition (NHDF [3]): Active
inhibition [8]: Active
inhibition (NHDF [4]): Active
inhibition in vivo at 100 µM (Bacillus cereus [9]): 35%
inhibition [10]: Active
inhibition (NHDF [11]): Active
inhibition [12]: Active
inhibition (NHDF [5]): Active

CCOP(=O)(OCC)c1nc2ccc(OC)cc2nc1P(=O)(OCC)OCC
inhibition [6]: < 5%

CC(NC(=O)C(Cc1ccccc1)NC(=O)NS(=O)(=O)c1ccc(F)cc1)C(=O)Nc1nnc(S)s1 (centres undefined)
Ki (Collagenase ColH [13]): 200 nM

O=C(O)CN(CC1c2ccccc2C=Cc2ccccc21)C(=O)NS(=O)(=O)c1ccc(F)cc1
IC50 (Collagenase ColH [2]): 21 nM
Ki [14]: 9 nM
Ki (Neutrophil collagenase): 13 nM

O=C(Nc1ccc(Cl)c(Cl)c1)c1ccc2nc(P(=O)(O)O)c(P(=O)(O)O)nc2c1
IC50 (HepG2): > 100 µM
inhibition in vivo at 100 µM (Bacillus cereus [9]): 50%
inhibition (NHDF [15]): Active
inhibition (NHDF [16]): Active
inhibition (NHDF [17]): Active
inhibition (NHDF [18]): Active

CC(=O)Nc1ccccc1OCc1cn(CCNC(=O)C(Cc2ccccc2)C(=O)NO)nn1 (centres undefined)
inhibition [8]: Active
inhibition [12]: Active
inhibition [19]: Active

O=P(O)(O)c1nc2cc(Cl)c(Cl)cc2nc1P(=O)(O)O
inhibition [8]: Active
MIC50 (Bacillus cereus [20]): 100 µM (≈ 35.9 µg/mL)
inhibition (NHDF [15]): Active
inhibition in vivo at 200 µM (Bacillus cereus [21]): 35%
inhibition [10]: Active
inhibition [12]: Active
inhibition (NHDF [22]): Active
inhibition (NHDF [17]): Active
inhibition (NHDF [18]): Active

O=P(O)(O)c1nc2ccc(Br)cc2nc1P(=O)(O)O
inhibition (NHDF [16]): Active
inhibition (NHDF [23]): Active
inhibition (NHDF [24]): Active

CC(=O)Nc1ccccc1OCc1cn(CCNC(=O)C(CC(C)C)C(=O)NO)nn1 (centres undefined)
IC50 (HepG2): > 100 µM
inhibition [8]: Active
Stability [25]: Stable
inhibition [12]: Active
inhibition [19]: Active

NCCCC(O)(P(=O)(O)O)P(=O)(O)O
inhibition (NHDF [3]): Active
inhibition (NHDF [4]): Active
inhibition (NHDF [5]): Active
inhibition (NHDF [22]): Active

Cc1ccc2nc(P(=O)(O)O)c(P(=O)(O)O)nc2c1
inhibition (NHDF [26]): Active
inhibition (NHDF [27]): Active
inhibition (NHDF [16]): Active
